Laboratory results published in patent US10221177B2 (HYDRA BIOSCIENCES, INC., priority 2014, dated 2019).

Target: human TRPA1 (Homo sapiens (Human), UniProt O75762)
Experiment: In vitro inhibition of human TRPA1, whole cell patch configuration
Type: cell-based
Conditions: current activation 10 μM AITC, tested concentrations 320 pM to 3.2 μM, read-out: hTRPA1 IC50
Procedure, shortened: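 Compound antagonism measured from voltage ramps (±100 or ±80 mV, 400 ms, every 4 s from −40 mV), analysed at −80 and 80 mV, or at constant −60 mV. HEPES-buffered NaCl bath, pH 7.4, EGTA or 2 mM Ca2+; temperature set by perfusion, within ±2° C; no junction-potential correction.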

Sequence of human TRPA1 (O75762 whole entry): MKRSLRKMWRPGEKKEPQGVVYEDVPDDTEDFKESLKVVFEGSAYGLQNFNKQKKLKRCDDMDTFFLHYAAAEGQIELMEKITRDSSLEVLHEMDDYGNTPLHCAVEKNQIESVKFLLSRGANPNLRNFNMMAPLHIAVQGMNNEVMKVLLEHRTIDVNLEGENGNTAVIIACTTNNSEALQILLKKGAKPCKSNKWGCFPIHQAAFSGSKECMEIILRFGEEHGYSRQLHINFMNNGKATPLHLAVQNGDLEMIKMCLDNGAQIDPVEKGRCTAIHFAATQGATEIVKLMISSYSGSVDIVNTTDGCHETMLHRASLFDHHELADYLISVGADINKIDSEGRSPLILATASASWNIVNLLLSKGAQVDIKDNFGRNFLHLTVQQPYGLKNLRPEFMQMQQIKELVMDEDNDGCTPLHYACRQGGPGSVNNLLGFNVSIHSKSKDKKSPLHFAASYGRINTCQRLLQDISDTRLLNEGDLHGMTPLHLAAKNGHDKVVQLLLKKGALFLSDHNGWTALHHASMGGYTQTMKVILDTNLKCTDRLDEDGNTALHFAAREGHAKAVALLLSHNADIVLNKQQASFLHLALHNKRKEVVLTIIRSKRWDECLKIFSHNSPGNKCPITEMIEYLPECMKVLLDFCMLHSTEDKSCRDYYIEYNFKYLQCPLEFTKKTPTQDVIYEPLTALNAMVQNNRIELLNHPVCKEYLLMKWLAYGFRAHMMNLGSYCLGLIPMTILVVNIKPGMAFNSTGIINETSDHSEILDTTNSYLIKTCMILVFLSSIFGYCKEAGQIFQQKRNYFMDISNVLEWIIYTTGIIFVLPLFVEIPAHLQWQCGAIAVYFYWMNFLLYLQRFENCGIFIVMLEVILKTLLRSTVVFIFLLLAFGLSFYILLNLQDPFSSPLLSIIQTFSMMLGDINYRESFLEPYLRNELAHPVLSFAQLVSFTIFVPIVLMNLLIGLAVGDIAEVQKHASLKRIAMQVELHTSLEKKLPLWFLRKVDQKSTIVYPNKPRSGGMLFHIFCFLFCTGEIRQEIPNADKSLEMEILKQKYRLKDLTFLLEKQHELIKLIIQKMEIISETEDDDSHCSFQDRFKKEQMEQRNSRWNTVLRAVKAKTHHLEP

SMILES	IC50
CCC(=O)Cn1c(=O)c2c(ncn2CC(=O)Nc2cncc(-c3cnc(C)c(C(F)(F)F)c3)n2)n(C)c1=O [Compound 243, 2-(3-methyl-2,6-dioxo-1-(2-oxobutyl)-2,3-dihydro-1H-purin-7(6H)-yl)-N-(6-(6-methyl-5-(trifluoromethyl)pyridin-3-yl)pyrazin-2-yl)acetamide]	6 nM
COCC(=O)Cn1c(=O)c2c(ncn2[C@@H](C)C(=O)Nc2cncc(-c3ccc(N4CC5CC5C4)nc3)n2)n(C)c1=O (stereo partly drawn) [Compound 271, (2S)—N-(6-(6-(3-azabicyclo[3.1.0]hexan-3-yl)pyridin-3-yl)pyrazin-2-yl)-2-(1-(3-methoxy-2-oxopropyl)-3-methyl-2,6-dioxo-2,3-dihydro-1H-purin-7(6H)-yl)propanamide]	5 nM
CCC(=O)Cn1c(=O)c2c(ncn2[C@@H](C)C(=O)Nc2csc(-c3cnc(N4CC5CC5C4)cn3)n2)n(C)c1=O (stereo partly drawn) [Compound 270, (2S)—N-(2-(5-(3-azabicyclo[3.1.0]hexan-3-yl)pyrazin-2-yl)thiazol-4-yl)-2-(3-methyl-2,6-dioxo-1-(2-oxobutyl)-2,3-dihydro-1H-purin-7(6H)-yl)propanamide]	3 nM
CCC(=O)Cn1c(=O)c2c(ncn2[C@@H](C)C(=O)Nc2cncc(-c3cnc(N4CC5C(C4)C5(F)F)nc3)n2)n(C)c1=O (stereo partly drawn) [Compound 75, (2S)—N-(6-(2-(6,6-difluoro-3-azabicyclo[3.1.0]hexan-3-yl)pyrimidin-5-yl)pyrazin-2-yl)-2-(3-methyl-2,6-dioxo-1-(2-oxobutyl)-2,3-dihydro-1H-purin-7(6H)-yl)propanamide]	3 nM
CC(=O)Cn1c(=O)c2c(ncn2[C@@H](C)C(=O)Nc2csc(-c3cnc(N4CCC[C@H]4C(F)(F)F)nc3)n2)n(C)c1=O [Compound 16, (S)-2-(3-methyl-2,6-dioxo-1-(2-oxopropyl)-2,3-dihydro-1H-purin-7(6H)-yl)-N-(2-(2-((S)-2-(trifluoromethyl)pyrrolidin-1-yl)pyrimidin-5-yl)thiazol-4-yl)propanamide]	2 nM
CCC(=O)Cn1c(=O)c2c(ncn2CC(=O)Nc2csc(-c3cnc(C)c(C(F)(F)F)c3)n2)n(C)c1=O [Compound 247, 2-(3-methyl-2,6-dioxo-1-(2-oxobutyl)-2,3-dihydro-1H-purin-7(6H)-yl)-N-(2-(6-methyl-5-(trifluoromethyl)pyridin-3-yl)thiazol-4-yl)acetamide]	2 nM
CC(=O)Cn1c(=O)c2c(ncn2[C@@H](C)C(=O)Nc2csc(-c3cnc(C(F)(F)F)nc3)n2)n(C)c1=O [Compound 31, (S)-2-(3-methyl-2,6-dioxo-1-(2-oxopropyl)-2,3-dihydro-1H-purin-7(6H)-yl)-N-(2-(2-(trifluoromethyl)pyrimidin-5-yl)thiazol-4-yl)propanamide]	16 nM
CCN(CC)c1ncc(-c2cccc(NC(=O)[C@H](C)n3cnc4c3c(=O)n(Cc3cc(C)on3)c(=O)n4C)n2)cn1 [Compound 27, (S)—N-(6-(2-(diethylamino)pyrimidin-5-yl)pyridin-2-yl)-2-(3-methyl-1-((5-methylisoxazol-3-yl)methyl)-2,6-dioxo-2,3-dihydro-1H-purin-7(6H)-yl)propanamide]	2 nM
C[C@@H](C(=O)Nc1cccc(-c2cnc(C(F)(F)F)nc2)n1)n1cnc2c1c(=O)n(CC1COC1)c(=O)n2C [Compound 51, (S)-2-(3-methyl-1-(oxetan-3-ylmethyl)-2,6-dioxo-2,3-dihydro-1H-purin-7(6H)-yl)-N-(6-(2-(trifluoromethyl)pyrimidin-5-yl)pyridin-2-yl)propanamide]	> 3200 nM
Cc1cc(Cn2c(=O)c3c(ncn3CC(=O)Nc3cccc(-c4cnc(C)c(C(F)(F)F)c4)n3)n(C)c2=O)no1 [Compound 238, 2-(3-methyl-1-((5-methylisoxazol-3-yl)methyl)-2,6-dioxo-2,3-dihydro-1H-purin-7(6H)-yl)-N-(6′-methyl-5′-(trifluoromethyl)-[2,3′-bipyridin]-6-yl)acetamide]	4 nM
COc1ncc(-c2cccc(NC(=O)[C@H](C)n3cnc4c3c(=O)n(Cc3cc(C)on3)c(=O)n4C)n2)cc1C(F)(F)F [Compound 121, (S)—N-(6′-methoxy-5′-(trifluoromethyl)-[2,3′-bipyridin]-6-yl)-2-(3-methyl-1-((5-methylisoxazol-3-yl)methyl)-2,6-dioxo-2,3-dihydro-1H-purin-7(6H)-yl)propanamide]	1 nM
CC#CCn1c(=O)c2c(ncn2[C@@H](C)C(=O)Nc2cncc(-c3cnc(N4CC5CC5C4)nc3)n2)n(C)c1=O (stereo partly shown) [Compound 261]	5 nM
Cc1noc(Cn2c(=O)c3c(ncn3[C@@H](C)C(=O)Nc3cncc(-c4cnc(C)c(C(F)(F)F)c4)n3)n(C)c2=O)n1 [Compound 132, (S)-2-(3-methyl-1-((3-methyl-1,2,4-oxadiazol-5-yl)methyl)-2,6-dioxo-2,3-dihydro-1H-purin-7(6H)-yl)-N-(6-(6-methyl-5-(trifluoromethyl)pyridin-3-yl)pyrazin-2-yl)propanamide]	9 nM
Cc1cc(Cn2c(=O)c3c(ncn3CC(=O)Nc3cccc(N4CC5CC5C4)n3)n(C)c2=O)no1 (stereo not shown) [Compound 212, N-(6-(3-azabicyclo[3.1.0]hexan-3-yl)pyridin-2-yl)-2-(3-methyl-1-((5-methylisoxazol-3-yl)methyl)-2,6-dioxo-2,3-dihydro-1H-purin-7(6H)-yl)acetamide]	62 nM
Cc1noc(Cn2c(=O)c3c(ncn3CC(=O)Nc3csc(-c4cnc(C(F)(F)F)c(C)c4)n3)n(C)c2=O)n1 [Compound 250, 2-(3-methyl-1-((3-methyl-1,2,4-oxadiazol-5-yl)methyl)-2,6-dioxo-2,3-dihydro-1H-purin-7(6H)-yl)-N-(2-(5-methyl-6-(trifluoromethyl)pyridin-3-yl)thiazol-4-yl)acetamide]	6 nM
CCC(=O)Cn1c(=O)c2c(ncn2[C@@H](C)C(=O)Nc2cncc(-c3ccc(N4CC5CC5C4)nc3)n2)n(C)c1=O (stereo partly drawn) [Compound 42, (2S)—N-(6-(6-(3-azabicyclo[3.1.0]hexan-3-yl)pyridin-3-yl)pyrazin-2-yl)-2-(3-methyl-2,6-dioxo-1-(2-oxobutyl)-2,3-dihydro-1H-purin-7(6H)-yl)propanamide]	4 nM
CCC(=O)Cn1c(=O)c2c(ncn2[C@@H](C)C(=O)Nc2cccc(-c3ccc(N4CC5C(C4)C5(F)F)nc3)n2)n(C)c1=O (stereo partly drawn) [Compound 68, (2S)—N-(6′-(6,6-difluoro-3-azabicyclo[3.1.0]hexan-3-yl)-[2,3′-bipyridin]-6-yl)-2-(3-methyl-2,6-dioxo-1-(2-oxobutyl)-2,3-dihydro-1H-purin-7(6H)-yl)propanamide]	5 nM
Cc1cc(-c2cccc(NC(=O)Cn3cnc4c3c(=O)n(Cc3ccon3)c(=O)n4C)n2)cnc1C(F)(F)F [Compound 224, 2-(1-(isoxazol-3-ylmethyl)-3-methyl-2,6-dioxo-2,3-dihydro-1H-purin-7(6H)-yl)-N-(5′-methyl-6′-(trifluoromethyl)-[2,3′-bipyridin]-6-yl)acetamide]	19 nM
C[C@@H](C(=O)Nc1cncc(-c2cnc(C(F)(F)F)nc2)n1)n1cnc2c1c(=O)n(Cc1ccon1)c(=O)n2C [Compound 120, (S)-2-(1-(isoxazol-3-ylmethyl)-3-methyl-2,6-dioxo-2,3-dihydro-1H-purin-7(6H)-yl)-N-(6-(2-(trifluoromethyl)pyrimidin-5-yl)pyrazin-2-yl)propanamide]	26 nM
COCC(=O)Cn1c(=O)c2c(ncn2[C@@H](C)C(=O)Nc2cccc(-c3cnc(N4CC5C(C4)C5(F)F)nc3)n2)n(C)c1=O (stereo partly drawn) [Compound 146, (2S)—N-(6-(2-(6,6-difluoro-3-azabicyclo[3.1.0]hexan-3-yl)pyrimidin-5-yl)pyridin-2-yl)-2-(1-(3-methoxy-2-oxopropyl)-3-methyl-2,6-dioxo-2,3-dihydro-1H-purin-7(6H)-yl)propanamide]	3 nM
Cc1cc(Cn2c(=O)c3c(ncn3CC(=O)Nc3cccc(N4CCN(CC(F)(F)F)CC4)n3)n(C)c2=O)no1 [Compound 214, 2-(3-methyl-1-((5-methylisoxazol-3-yl)methyl)-2,6-dioxo-2,3-dihydro-1H-purin-7(6H)-yl)-N-(6-(4-(2,2,2-trifluoroethyl)piperazin-1-yl)pyridin-2-yl)acetamide]	92 nM
Cc1noc(Cn2c(=O)c3c(ncn3[C@@H](C)C(=O)Nc3cncc(-c4cnc(C(F)(F)F)c(C)c4)n3)n(C)c2=O)n1 [Compound 133, (S)-2-(3-methyl-1-((3-methyl-1,2,4-oxadiazol-5-yl)methyl)-2,6-dioxo-2,3-dihydro-1H-purin-7(6H)-yl)-N-(6-(5-methyl-6-(trifluoromethyl)pyridin-3-yl)pyrazin-2-yl)propanamide]	9 nM
CCC(=O)Cn1c(=O)c2c(ncn2[C@@H](C)C(=O)Nc2csc(-c3cnc(N4CC5C(C4)C5(F)F)nc3)n2)n(C)c1=O (stereo partly drawn) [Compound 57, (2S)—N-(2-(2-(6,6-difluoro-3-azabicyclo[3.1.0]hexan-3-yl)pyrimidin-5-yl)thiazol-4-yl)-2-(3-methyl-2,6-dioxo-1-(2-oxobutyl)-2,3-dihydro-1H-purin-7(6H)-yl)propanamide]	2 nM
CC(=O)Cn1c(=O)c2c(ncn2[C@@H](C)C(=O)Nc2cccc(-c3cnc(N4CC5CC5C4)nc3)n2)n(C)c1=O (stereo partly drawn) [Compound 142, (2S)—N-(6-(2-(3-azabicyclo[3.1.0]hexan-3-yl)pyrimidin-5-yl)pyridin-2-yl)-2-(3-methyl-2,6-dioxo-1-(2-oxopropyl)-2,3-dihydro-1H-purin-7(6H)-yl)propanamide]	7 nM
Cc1cc(Cn2c(=O)c3c(ncn3[C@@H](C)C(=O)Nc3csc(-c4cnc(C)c(C(F)(F)F)c4)n3)n(C)c2=O)no1 [Compound 112, (S)-2-(3-methyl-1-((5-methylisoxazol-3-yl)methyl)-2,6-dioxo-2,3-dihydro-1H-purin-7(6H)-yl)-N-(2-(6-methyl-5-(trifluoromethyl)pyridin-3-yl)thiazol-4-yl)propanamide]	1 nM
